# From patent US20260258035A1, “FIVE-MEMBERED AND SIX-MEMBERED NITROGEN-CONTAINING COMPOUND, AND INTERMEDIATE, PREPARATION METHOD AND USE THEREOF” (HANGZHOU SYNRX THERAPEUTICS BIOMEDICAL TECHNOLOGY CO., LTD., priority 2022, published 2026)
# Like-named read-outs stand apart in the source and are kept apart here.
# Key:
# [1] = system: Human breast squamous carcinoma cells HCC1806; assay: Cell function assay (In-Cell Western, PAR/pADPr after MMS); assay type: cell-based; details: read-out: IC50 (nM) in cell function assay
# Outline: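 HCC1806 cells adhered 24 h at 37 °C, 5% CO2, then were pretreated 1 h with compound (30000 nM down to 1 nM, plus 0 nM) or DMSO. MMS was then added at 0.5 mM final for 1 h before In-Cell Western detection of PAR/pADPr.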
# PARG = PARG (Homo sapiens, UniProt Q86W56); assay: Biochemical assay (PARG, TFMU-ADPr substrate)
# PARG, sequence (Q86W56 whole entry): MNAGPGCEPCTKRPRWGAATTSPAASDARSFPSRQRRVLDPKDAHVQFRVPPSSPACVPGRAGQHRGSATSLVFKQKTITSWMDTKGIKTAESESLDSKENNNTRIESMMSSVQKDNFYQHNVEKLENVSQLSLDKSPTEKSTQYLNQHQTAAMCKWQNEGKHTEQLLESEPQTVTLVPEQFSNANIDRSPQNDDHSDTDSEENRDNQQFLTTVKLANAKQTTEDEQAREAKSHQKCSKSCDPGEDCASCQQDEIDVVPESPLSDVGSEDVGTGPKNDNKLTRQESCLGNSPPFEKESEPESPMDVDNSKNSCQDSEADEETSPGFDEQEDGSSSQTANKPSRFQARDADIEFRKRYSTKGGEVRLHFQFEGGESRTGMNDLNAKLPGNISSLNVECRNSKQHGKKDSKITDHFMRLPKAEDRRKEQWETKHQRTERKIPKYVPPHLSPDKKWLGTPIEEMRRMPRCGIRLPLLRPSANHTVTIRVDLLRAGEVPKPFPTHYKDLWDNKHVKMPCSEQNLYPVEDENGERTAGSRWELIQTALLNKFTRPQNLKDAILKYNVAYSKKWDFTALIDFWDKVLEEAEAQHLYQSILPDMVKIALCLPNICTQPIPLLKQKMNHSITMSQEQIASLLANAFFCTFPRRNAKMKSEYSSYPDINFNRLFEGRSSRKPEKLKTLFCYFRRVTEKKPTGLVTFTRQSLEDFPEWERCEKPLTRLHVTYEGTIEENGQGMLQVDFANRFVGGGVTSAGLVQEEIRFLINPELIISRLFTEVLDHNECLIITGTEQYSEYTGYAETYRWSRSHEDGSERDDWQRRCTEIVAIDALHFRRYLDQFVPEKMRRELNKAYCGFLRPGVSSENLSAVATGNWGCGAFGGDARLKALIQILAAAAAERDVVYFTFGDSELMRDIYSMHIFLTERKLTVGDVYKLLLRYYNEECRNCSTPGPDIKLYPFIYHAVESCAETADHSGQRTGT
# HCC1806 = assay: Cell viability assay (CellTiter-Glo); assay type: cell-based, Human; details: HCC1806, 7 days, CellTiter-Glo, read-out: IC50 (nM) in cell viability assay
# [2] = HCC1806, In-Cell Western, MMS treatment
# [3] = HCC1806, compound 1 h then 0.5 mM MMS 1 h, PAR/pADPr antibody, In-Cell Western
# [4] = 4 nM PARG, 66.2 uM TFMU-ADPr, 3 min at room temperature
Structure (SMILES),"IC50 [1, 2]","IC50 [1, 3]",IC50 (PARG; [4]),"IC50 (PARG; PARG, TFMU-ADPr substrate)",IC50 (HCC1806),"IC50 (HCC1806; Homo sapiens, HCC1806, 168 h)"
"C[C@@H]1CN(c2cc(S(=O)(=O)NC3(C#N)CC3)cn3c(-c4nnc(C(F)(F)F)s4)ncc23)CCN1C(=O)C1(C)CC1 [Example 80, (R)-N-(1-cyanocyclopropyl)-8-(3-methyl-4-(1-methylcyclopropane-1-carbonyl)piperazin-1-yl)-3-(5-(trifluoromethyl)-1,3,4-thiadiazol-2-yl)imidazo[1,5-a]pyridine-6-sulfonamide]",7.57 nM,< 100 nM,< 100 nM,28.8 nM,764 nM,500 to 5000 nM
"C[C@@H]1CN(c2cc(S(=O)(=O)NC3(C#N)CC3)cn3c(-c4nnc(C(F)F)s4)ncc23)CCN1C(=O)C(C)(C)C [Example 84, (R)-N-(1-cyanocyclopropyl)-3-(5-(difluoromethyl)-1,3,4-thiadiazol-2-yl)-8-(3-methyl-4-pivaloylpiperazin-1-yl)imidazo[1,5-a]pyridine-6-sulfonamide]",6.85 nM,< 100 nM,< 100 nM,11 nM,472 nM,< 500 nM
"C[C@@H]1CN(c2cc(S(=O)(=O)NC3(C#N)CC3)cn3c(-c4nnc(C(F)F)s4)ncc23)CCN1C(=O)C(C)(C)F [Example 94, (R)-N-(1-cyanocyclopropyl)-3-(5-(difluoromethyl)-1,3,4-thiadiazol-2-yl)-8-(4-(2-fluoro-2-methylpropanoyl)-3-methylpiperazin-1-yl)imidazo[1,5-a]pyridine-6-sulfonamide]",23.4 nM,< 100 nM,< 100 nM,9.55 nM,350 nM,< 500 nM
"C[C@@H]1CN(c2cc(S(=O)(=O)NC3(C#N)CC3)cn3c(-c4nnc(C(F)F)s4)nc(Cl)c23)CCN1C(=O)C1(C)CC1 [Example 123, (R)-1-chloro-N-(1-cyanocyclopropyl)-3-(5-(difluoromethyl)-1,3,4-thiadiazol-2-yl)-8-(3-methyl-4-(1-methylcyclopropane-1-carbonyl)piperazin-1-yl)imidazo[1,5-a]pyridine-6-sulfonamide]",7.13 nM,< 100 nM,< 100 nM,9.12 nM,584 nM,500 to 5000 nM
"N#CC1(NS(=O)(=O)c2cc(N3CCN(C(=O)C4CC(F)(F)C4)CC3)c3cnc(-c4nnc(C(F)F)s4)n3c2)CC1 [Example 146, N-(1-cyanocyclopropyl)-8-(4-(3,3-difluorocyclobutane-1-carbonyl)piperazin-1-yl)-3-(5-(difluoromethyl)-1,3,4-thiadiazol-2-yl)imidazo[1,5-a]pyridine-6-sulfonamide]",28.9 nM,< 100 nM,< 100 nM,11.5 nM,692 nM,500 to 5000 nM
"CC(C)C(=O)N1CCN(c2cc(S(=O)(=O)NC3(C#N)COC3)cn3c(-c4nnc(C(F)F)s4)ncc23)CC1 [Example 148, N-(3-cyanooxetan-3-yl)-3-(5-(difluoromethyl)-1,3,4-thiadiazol-2-yl)-8-(4-isobutyrylpiperazin-1-yl)imidazo[1,5-a]pyridine-6-sulfonamide]",8510 nM,> 1000 nM,< 100 nM,2.04 nM,8810 nM,5000 to 30000 nM
"[2H]c1nc(-c2nnc(C(F)F)s2)n2cc(S(=O)(=O)NC3(C)COC3)c(F)c(N3CCN(C(=O)C(C)C)CC3)c12 [Example 155, 3-(5-(difluoromethyl)-1,3,4-thiadiazol-2-yl)-7-fluoro-8-(4-isobutyrylpiperazin-1-yl)-N-(3-methyloxetan-3-yl)imidazo[1,5-a]pyridine-6-sulfonamide-1-d]",39.1 nM,100 to 500 nM,< 100 nM,1.68 nM,727 nM,500 to 5000 nM
"CC(C)C(=O)N1CCN(c2cc(S(=O)(=O)NC3(C#N)CC3)cn3c(-c4nnc(CO)s4)ncc23)CC1 [Example 366, N-(1-cyanocyclopropyl)-3-(5-(hydroxymethyl)-1,3,4-thiadiazol-2-yl)-8-(4-isobutyrylpiperazin-1-yl)imidazo[1,5-a]pyridine-6-sulfonamide]",70.4 nM,< 100 nM,< 100 nM,7.94 nM,7730 nM,5000 to 30000 nM

# Results, then the compound that gave them:
"IC50 [1, 2]","IC50 [1, 3]",IC50 (PARG; [4]),"IC50 (PARG; PARG, TFMU-ADPr substrate)",IC50 (HCC1806),"IC50 (HCC1806; Homo sapiens, HCC1806, 168 h)",Structure (SMILES)
26.8 nM,< 100 nM,< 100 nM,6.51 nM,372 nM,< 500 nM,"CC(C)C(=O)N1CCN(c2cc(S(=O)(=O)NC3(C)CC3)cn3c(-c4nnc(C(F)F)s4)nnc23)CC1 [Example 99, 3-(5-(difluoromethyl)-1,3,4-thiadiazol-2-yl)-8-(4-isobutyrylpiperazin-1-yl)-N-(1-methylcyclopropyl)-[1,2,4]triazolo[4,3-a]pyridine-6-sulfonamide]"
4.96 nM,< 100 nM,< 100 nM,1.99 nM,448 nM,< 500 nM,"CC(C)C(=O)N1CCN(c2cc(S(=O)(=O)NC3(CF)CC3)cn3c(-c4nnc(C(F)F)s4)nnc23)CC1 [Example 100, 3-(5-(difluoromethyl)-1,3,4-thiadiazol-2-yl)-N-(1-(fluoromethyl)cyclopropyl)-8-(4-isobutyrylpiperazin-1-yl)-[1,2,4]triazolo[4,3-a]pyridine-6-sulfonamide]"
32.1 nM,< 100 nM,< 100 nM,2.54 nM,5000 nM,5000 to 30000 nM,"C#CC1(NS(=O)(=O)c2cc(N3CCN(C(=O)C(C)C)CC3)c3nnc(-c4nnc(C(F)F)s4)n3c2)CC1 [Example 102, 3-(5-(difluoromethyl)-1,3,4-thiadiazol-2-yl)-N-(1-ethynylcyclopropyl)-8-(4-isobutyrylpiperazin-1-yl)-[1,2,4]triazolo[4,3-a]pyridine-6-sulfonamide]"
22.6 nM,< 100 nM,< 100 nM,1.5 nM,520 nM,500 to 5000 nM,"O=S(=O)(NC1(CF)CC1)c1cc(N2CCC(CO)CC2)c2nnc(-c3nnc(C(F)F)s3)n2c1 [Example 108, 3-(5-(difluoromethyl)-1,3,4-thiadiazol-2-yl)-N-(1-(fluoromethyl)cyclopropyl)-8-(4-(hydroxymethyl)piperidin-1-yl)-[1,2,4]triazolo[4,3-a]pyridine-6-sulfonamide]"
89.5 nM,< 100 nM,< 100 nM,14 nM,850 nM,500 to 5000 nM,"O=S(=O)(NC1(CF)CC1)c1cc(N2CCC3(CCO3)CC2)c2nnc(-c3nnc(C(F)F)s3)n2c1 [Example 110, 3-(5-(difluoromethyl)-1,3,4-thiadiazol-2-yl)-N-(1-(fluoromethyl)cyclopropyl)-8-(1-oxa-7-azaspiro[3.5]nonan-7-yl)-[1,2,4]triazolo[4,3-a]pyridine-6-sulfonamide]"
72.9 nM,< 100 nM,< 100 nM,0.37 nM,916 nM,500 to 5000 nM,"COC1(C)CCN(c2cc(S(=O)(=O)NC3(CF)CC3)cn3c(-c4nnc(C(F)F)s4)nnc23)CC1 [Example 111, 3-(5-(difluoromethyl)-1,3,4-thiadiazol-2-yl)-N-(1-(fluoromethyl)cyclopropyl)-8-(4-methoxy-4-methylpiperidin-1-yl)-[1,2,4]triazolo[4,3-a]pyridine-6-sulfonamide]"
17.5 nM,< 100 nM,< 100 nM,1.57 nM,462 nM,500 to 5000 nM,"CC1(NS(=O)(=O)c2cc(N3CCC(CO)CC3)c3nnc(-c4nnc(C(F)F)s4)n3c2)CC1 [Example 114, 3-(5-(difluoromethyl)-1,3,4-thiadiazol-2-yl)-8-(4-(hydroxymethyl)piperidin-1-yl)-N-(1-methylcyclopropyl)-[1,2,4]triazolo[4,3-a]pyridine-6-sulfonamide]"
1.49 nM,< 100 nM,< 100 nM,8.71 nM,256 nM,< 500 nM,"C[C@@H]1CN(c2cc(S(=O)(=O)NC3(C)CC3)cn3c(-c4nnc(C(F)F)s4)nnc23)CCN1C(=O)C1(C)CC1 [Example 117, (R)-3-(5-(difluoromethyl)-1,3,4-thiadiazol-2-yl)-8-(3-methyl-4-(1-methylcyclopropane-1-carbonyl)piperazin-1-yl)-N-(1-methylcyclopropyl)-[1,2,4]triazolo[4,3-a]pyridine-6-sulfonamide]"
2.99 nM,< 100 nM,< 100 nM,5.34 nM,352 nM,500 to 5000 nM,"[2H]c1nc(-c2nnc(C(F)F)s2)n2cc(S(=O)(=O)NC3(CF)COC3)cc(N3CCN(C(=O)C(C)C)CC3)c12 [Example 153, 3-(5-(difluoromethyl)-1,3,4-thiadiazol-2-yl)-N-(3-(fluoromethyl)oxetan-3-yl)-8-(4-isobutyrylpiperazin-1-yl)imidazo[1,5-a]pyridine-6-sulfonamide-1-d]"
12 nM,< 100 nM,< 100 nM,6.92 nM,280 nM,< 500 nM,"[2H]c1nc(-c2nnc(C(F)F)s2)n2cc(S(=O)(=O)NC3(C#N)CC3)cc(N3CCN(C(=O)C4(C)CC4)[C@H](C)C3)c12 [Example 156, (R)—N-(1-cyanocyclopropyl)-3-(5-(difluoromethyl)-1,3,4-thiadiazol-2-yl)-8-(3-methyl-4-(1-methylcyclopropane-1-carbonyl)piperazin-1-yl)imidazo[1,5-a]pyridine-6-sulfonamide-1-d]"
